# Source: patent US8022036B2, “Use of thymosin alpha 1 for the treatment of immunological diseases” (Sigma-Tau Industrie Farmaceutiche Riunite S.p.A., priority 2006, dated 2011)
# No end group written: not given here.
# What was measured:
# IDO = IDO expression (immunoblotting) and kynurenine production in DCs; assay type: cell-based, mouse
# Protocol: IDO expression and functional activity were assessed as described in Nat. Immunol. […] Generation, purification and activity of T reg cells Splenic CD4+ T-cells were cocultured with conidia-pulsed DCs for 5 days […] before flow cytometry or ELISPOT assay. 1-MT (Sigma-Aldrich) was used at […].
# Cells were assessed for IDO protein expression by immunoblotting and for kynurenine production. Positive and negative controls consisted of IDO protein-expressing MC24 transfectants and mock-transfected MC22 cells, respectively (not shown in the figure).
# [1] = test system: TLN CD4+ T lymphocytes, neutrophils; assay: Proliferation of TLN cells and suppressive activity of CD4+CD25+ T reg cells from DC-treated HSCT mice; assay type: in vivo, mouse
# Protocol: IDO expression and functional activity were assessed as described in Nat. Immunol. 2002; 3:1097-1101. Generation, purification and activity of T reg cells Splenic CD4+ T-cells were cocultured with conidia-pulsed DCs for 5 days […] before flow cytometry or ELISPOT assay. 1-MT (Sigma-Aldrich) was used at 2 μM. CD4+CD25+ and CD4+CD25− cells (>90% pure on FACS analysis) were separated by magnetic cell sorting from lung and TLN (J. Immunol. 2006; 176:1712-1723). For T reg cell inhibition, 5×10^4 TLN T reg cells were added to 3×10^5 CD4+CD25− cells, both from transplanted mice, stimulated with 3×10^4 autologous Aspergillus conidia-pulsed spDCs or with or 1.5×10^5 allogeneic spDCs from naïve donor mice for five days before H^3-thymidine labeling. Purified peritoneal CD 11b+Gr−1+PMN (>98% pure on FACS analysis) (2×10^6) were exposed to resting conidia in the presence of 4×10^5 CD4+CD25+ for 60 min for oxidant production or 24 hours for cytokine production (J. Immunol. 2006; 176:1712-1723).
# Mice received twice intraperitoneal injections of DCs, at weekly interval, starting a day after HSCT and infected a week after the last DC administration. Three days later, lung homogenates, CD4+ T cells (>98% on FACS analysis), CD4+CD25− (>98%) or CD4+CD25+ (>82%) purified with the specific Miltenyi Biotec isolation kits were assessed for pattern of pro- and anti-inflammatory (TNF-a/IL-10 in lung homogenates), Th1 (IFN-γ) or Th2 (IL-4) cytokine production by CD4+ cells stimulated with Aspergillus-pulsed DCs (Blood. 2003; 102:3807-3814) frequency of CD25+ IL-10^+ TGF-β+ T reg cells, lymphoproliferation and gene expression by RT-PCR. For proliferation, TLN CD4+ T lymphocytes were plated (10^5 cells/well) with 10^5 cells/well irradiated allogeneic splenocytes or autologous spDCs pulsed with conidia or 10 μg/mL Con A for five days before H^3-thymidine labeling.
# (A) Murine CD4+ T lymphocytes from TLN of transplanted mice were stimulated with irradiated allogeneic splenocytes, autologous splenic DCs stimulated with conidia or Concanavalin A. T cell proliferation was assessed in a 5-day MLR assay and measured by H^3thymidine incorporation over the last 8 hours, (*) P<0.05, transplanted versus donor mice. (**) P<0.05, T cell- and/or DC-treated mice versus untreated mice. (***) P<0.05, Thymosin alpha 1-treated DCs versus untreated DCs. […] (D) Peritoneal neutrophils (PMN) were exposed to resting conidia in the presence of lung CD4+CD25+ T cells from FL-DCtreated (a) or Thymosin alpha 1-GM-DC-treated mice (b) for 60 min (for oxidant production, expressed as nanomoles O2-/10^6 cells) or 24 hours for cytokine production (pg/mL by ELISA). […]
# lymphosarcoma cells = details: BALB/c mice; cited from earlier work
# GM-DCs or FL-DCs = assay: Phagocytosis of Aspergillus conidia by human GM- or FL-DCs; assay type: cell-based
# Description: GM-DCs or FL-DCs were obtained from purified CD14+ monocytes from healthy donors or transplanted patients (1 month post-HSCT) cultured in Iscove's modified medium for 7-9 days, in the presence of rGM-CSF (Schering-Plough, Milan, Italy) and rIL-4 (Peprotech, Inalco, Milan, Italy) or FLT3-L (Immunex Corporation, Seattle, Wash.) (Blood. 2004; 103:4232-4239). DC recovery was between 20-30% reduced in cultures from transplanted patients. Murine GM-DCs or FL-DCs were obtained from bone marrow cells for 7-9 days, as described (Blood. 2004; 103:4232-4239). Thymosin alpha 1 and sThymosin alpha 1 were added to the cultures at 20 ng/mL. DCs (>99% CD11c+ consisting of 90-95% CD8-, 5-10% CD8+, and 1-5% B220+ cells) were purified from spleens (spDCs) by magnetic-activated sorting using CD11c MicroBeads and MidiMacs (Miltenyi Biotech). DC populations were further separated into CD8−, CD8+ and B220+ fractions by means of CD8 or B220 MicroBeads (Miltenyi Biotech). DCs were pulsed in serum-free Iscove medium for 24 hours with live unopsonized Aspergillus conidia or Zymosan from Saccharomyces cerevisiae (Sigma) or CpG-ODN 2006 as described.7 Phagocytosis was done as described (Blood. 2004; 103:4232-4239). Photographs were taken using a high Resolution Microscopy Color Camera AxioCam, using the AxioVision Software Rel. 3.1 (Carl Zeiss, Milan, Italy).
# (B) Phagocytosis of conidia by GM- or FL-DCs exposed (+) or not (−) to Thymosin alpha 1 from seven recipients of Tcell depleted haploidentical HSCT. The data are the means±SE and expressed as % internalization (numbers within figures). (*) P<0.05, Thymosin alpha 1-treated versus untreated cells.
# [2] = test system: human non-small cell lung cancer (NSCLC) cells; details: subcutaneous administration, nude mice; cited from earlier work
# [3] = mice receiving Thymosin alpha 1-treated GM-DCs
substance,measurement,setting,value
"Thymosin alpha 1: naturally occurring thymic peptide; supplied as purified, endotoxin-free sterile lyophilized acetylated polypeptide from SciClone Pharmaceuticals (Ac-SDAAVDTSSEITTKDLKEKKEVVEEAEN; UniProt P06454 2-29, looked up)",induction of IDO protein and function in DCs from TLR9-/- or IFN-aβR-/- mice,IDO; DCs from knockout mice,not observed
same,"induction of functional IDO (protein, tryptophan to kynurenine conversion)",IDO; FL-DCs and GM-DCs,Induction of functional IDO by Thymosin alpha 1 in both FL-DCs and GM-DCs was confirmed
same,TNF-a and oxidant production of neutrophils in the presence of lung T reg cells,[1]; T reg fraction induced by Thymosin alpha 1-treated GM-DCs,significantly inhibited
same,alloreactivity and antigen-specific responses of CD4+CD25- T cells in the presence of CD4+CD25+ T cells,[1]; T reg from mice receiving Thymosin alpha 1-treated GM-DCs,both reduced
same,alloreactivity (proliferation of TLN cells to allogeneic splenocytes),[1]; [3],decreased
same,pathogen-specific reactivity (proliferation to Aspergillus conidia),[1]; [3],recovered
same,"local sarcoma growth, liver and lung metastases of lymphosarcoma cells",lymphosarcoma cells,significantly reduced
same,phagocytosis of GM- and FL-DCs derived from patients,GM-DCs or FL-DCs; patients one month after transplantation,promoted the phagocytosis
same,phagocytosis in GM-DCs,GM-DCs or FL-DCs; with Thymosin alpha 1 (from 30% without),56%
same,phagocytosis in FL-DCs,GM-DCs or FL-DCs; with Thymosin alpha 1 (from 32% without),58%
same,tumor volume,[2],significantly decreased tumor volume
